Experimental data: patent publication KR20170076438A, “필리게닌을 포함하는 피부상태 개선용 조성물” (주식회사 엘지생활건강, priority 2015, dated 2017)

How the values were obtained:
[1] = tested on: B-16 mouse melanoma cell [쥐의 멜라노마 세포(B-16 mouse melanoma cell)]; assay: Total melanin amount in B-16 mouse melanoma cells; type: cell-based; conditions: 3 days; for melanin production amount: absorbance at 400 nm per 1×10^6 cells, DMSO control 0.33
[2] = tested on: type I collagen [제1형 콜라겐(type I collagen)]; assay: Type I collagen synthesis in human-derived fibroblasts (PICP EIA kit); type: cell-based; conditions: 48 h culture, n=4; for type I collagen synthesis amount: negative control 150.2; for increase rate (type I collagen synthesis): relative to untreated control
[3] = biological target: T1, elastase [엘라스테이즈(Elastase)] (Homo sapiens, UniProt P08246); assay: Elastase activity inhibition (human leukocyte elastase, MeOSuc-Ala-Ala-Pro-Val-pNA); type: biochemical; conditions: for enzyme activity: slope of absorbance at 405 nm vs time, room temperature, 20 min, n=3, DMSO control 10.4
T1 construct: 엘라스테이즈(Elastase)는 사람의 백혈구 세포로부터 유래한 엘라스테이즈를 사용하였고; from tissue; host or cells: human leukocytes (사람의 백혈구 세포)
T1 sequence (P08246 30-267): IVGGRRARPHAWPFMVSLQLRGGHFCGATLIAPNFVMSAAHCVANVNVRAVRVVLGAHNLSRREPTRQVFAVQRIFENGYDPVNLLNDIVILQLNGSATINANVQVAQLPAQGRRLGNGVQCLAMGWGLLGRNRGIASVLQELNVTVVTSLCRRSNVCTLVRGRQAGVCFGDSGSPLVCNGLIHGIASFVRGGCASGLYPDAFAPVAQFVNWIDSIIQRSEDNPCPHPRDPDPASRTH

[4] = tested on: nitric oxide (NO) production in RAW264.7 cells [RAW264.7 세포주, Nitric oxide(NO)]; assay: NO production inhibition in LPS-stimulated RAW264.7 cells (GRIESS method); type: cell-based; conditions: Mus musculus, LPS 1 μg, 24 h, 540 nm, read-out: NO production inhibition rate
[5] = Anti-glycation assay (L-arginine and glucose, absorbance at 420 nm); type: biochemical; conditions: pH 7.4, 70 ℃, 4 h, 0.1 M glucose
[6] = Mus musculus, 72 h, 10 ppm, relative to control, read-out: increase rate (total melanin)
[7] = pH 7.5, read-out: inhibition rate (elastase)

Question: For `COc1cc([C@H]2OC[C@H]3[C@@H]2CO[C@H]3c2ccc(OC)c(OC)c2)ccc1O` [화학식1의 화합물, phillygenin], which melanin production amount ([1]; 1 ppm) is on record?
Answer: The melanin production amount was 0.359 abs.

Question: What about the melanin production amount ([1]; 10 ppm) of the same compound?
Answer: Its melanin production amount is 0.403 abs.

Question: And the activation at 1 ppm ([1]; Mus musculus, 72 h, 1 ppm, relative to control, read-out: increase rate (total melanin))?
Answer: Its activation at 1 ppm is 8.79%.

Question: What about the activation at 10 ppm [1, 6] of the same compound?
Answer: The activation at 10 ppm was 22.1%.

Question: What about the “type I collagen synthesis amount” value ([2]; 1 ppm) of the same compound?
Answer: Its value is 187.6 ng/mL.

Question: And the “increase rate (type I collagen synthesis)” value (“increase rate” for short) ([2]; 1 ppm)?
Answer: Its value is 24.9%.

Question: What about the “type I collagen synthesis amount” value ([2]; 10 ppm) of the same compound?
Answer: The value was 234.7 ng/mL.

Question: And the “increase rate” value ([2]; 10 ppm)?
Answer: The value was 56.3%.

Question: What about the enzyme activity ([3]; 10 ppm) of the same compound?
Answer: The enzyme activity was 3.9.

Question: And the enzyme activity ([3]; 20 ppm)?
Answer: The enzyme activity was 3.5.

Question: And the inhibition at 10 ppm [3, 7]?
Answer: The inhibition at 10 ppm was 62.5%.

Question: And the inhibition at 20 ppm [3, 7]?
Answer: The inhibition at 20 ppm was 66.3%.

Question: What about the inhibition at 1 ppm ([4]; 1 ppm) of the same compound?
Answer: Its inhibition at 1 ppm is 17.9%.

Question: And the inhibition at 10 ppm [4]?
Answer: The inhibition at 10 ppm was 20.6%.

Question: What about the inhibition at 100 ppm ([4]; 100 ppm) of the same compound?
Answer: The inhibition at 100 ppm was 51.7%.

Question: What about the “inhibition rate (glycation)” value ([5]; 25 ppm) of the same compound?
Answer: The value was 32.68%.

Question: And the “inhibition rate (glycation)” value ([5]; 50 ppm)?
Answer: Its value is 55.64%.

Question: For `C=C[C@@]1(C)CC(=O)[C@]2(O)[C@@]3(C)[C@@H](O)CCC(C)(C)[C@@H]3[C@H](O)[C@H](OC(C)=O)[C@@]2(C)O1` [Forskolin, reference compound], which melanin production amount ([1]; 10 ppm) is on record?
Answer: The melanin production amount was 0.792 abs.

Question: What about the activation at 10 ppm [1, 6] of the same compound?
Answer: Its activation at 10 ppm is 140%.

Question: Which inhibition at 10 ppm [4] does the source give for `CNC(=N)NCCC[C@H](N)C(=O)O` [L-NMMA, L-NG-Monomethylarginine, reference compound] here?
Answer: The inhibition at 10 ppm was 41%.

Question: With `O=C1O[C@H]([C@@H](O)CO)C(O)=C1O` [비타민 C, reference compound] as the compound, how does the “type I collagen synthesis amount” value ([2]; 52.85 ppm (52.85 ㎍/ml)) read?
Answer: Its value is 246.8 ng/mL.

Question: What about the “increase rate” value ([2]; 52.85 ppm (52.85 ㎍/ml)) of the same compound?
Answer: The value was 64.3%.

Question: With `N=C(N)NN` [Aminoguanidine, reference compound] as the compound, how does the “inhibition rate (glycation)” value ([5]; 55 ppm) read?
Answer: Its value is 54.89%.
